Calls of active or inactive are those of the source. No cut-off for these calls is given here.
Key:
[1] = target: T1, Protein cereblon/Polycomb complex protein BMI-1 (Homo sapiens, UniProt Q96SW2+P35226); experiment: PROTAC activity at […] in human K562 cells assessed as degradation of BMI1 protein expression at 10 uM incubated for 20 hrs in presence of MLN4924 by Western blotting analysis; format: cell-based
[2] = target: T2, Protein cereblon/E3 ubiquitin-protein ligase RING2 (Homo sapiens, UniProt Q96SW2+Q99496); experiment: PROTAC activity at CRBN/RING1B in human 786-0 cells with defective VHL assessed as degradation of RING1B protein expression at 10 uM incubated for 24 hrs by Western blotting analysis; format: cell-based
Target sequence in this assay (Q96SW2 whole entry): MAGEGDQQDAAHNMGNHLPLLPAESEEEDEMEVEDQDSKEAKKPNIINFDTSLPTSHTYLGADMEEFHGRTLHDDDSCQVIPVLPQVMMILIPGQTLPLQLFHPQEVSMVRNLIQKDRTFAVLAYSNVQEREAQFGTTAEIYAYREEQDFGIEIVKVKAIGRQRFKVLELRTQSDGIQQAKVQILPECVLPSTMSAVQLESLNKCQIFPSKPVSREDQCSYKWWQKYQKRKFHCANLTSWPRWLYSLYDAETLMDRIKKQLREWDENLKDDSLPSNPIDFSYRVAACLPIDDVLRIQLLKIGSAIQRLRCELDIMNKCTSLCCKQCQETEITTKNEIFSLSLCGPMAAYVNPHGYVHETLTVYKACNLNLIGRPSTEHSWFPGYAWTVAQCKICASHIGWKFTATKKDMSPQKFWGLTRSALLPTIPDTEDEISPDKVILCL
Target sequence in this assay (Q99496 2-336 partner limits assumed): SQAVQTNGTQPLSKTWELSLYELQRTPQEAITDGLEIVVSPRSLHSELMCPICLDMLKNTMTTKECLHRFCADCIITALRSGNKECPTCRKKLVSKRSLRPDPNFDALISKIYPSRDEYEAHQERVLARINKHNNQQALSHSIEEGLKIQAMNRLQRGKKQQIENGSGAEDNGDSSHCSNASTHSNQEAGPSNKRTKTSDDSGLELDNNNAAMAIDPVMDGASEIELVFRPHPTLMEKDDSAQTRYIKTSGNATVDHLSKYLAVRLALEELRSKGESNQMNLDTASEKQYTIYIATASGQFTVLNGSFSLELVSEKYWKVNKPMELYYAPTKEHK

[3] = target: T2, Protein cereblon/E3 ubiquitin-protein ligase RING2; experiment: PROTAC activity at CRBN/RING1B in human K562 cells assessed as degradation of RING1B protein expression at 10 uM measured after 12 hrs by Western blotting analysis relative to control; format: cell-based
Target sequence in this assay (Q96SW2 whole entry): as the sequence (Q96SW2 whole entry) above
Target sequence in this assay (Q99496 2-336 partner limits assumed): as the sequence (Q99496 2-336 partner limits assumed) above

[4] = tested on: PC-3M; experiment: Induction of PRC1 degradation in human PC-3M cells assessed as reduction of H2AK119ub chromatin mark at 5 uM incubated for 24 hrs by Western blotting analysis; format: cell-based
[5] = target: T2, Protein cereblon/E3 ubiquitin-protein ligase RING2; experiment: PROTAC activity at CRBN/RING1B in human K562 cells assessed as degradation of RING1B protein expression at 10 uM measured after 4 hrs by Western blotting analysis; format: cell-based
Target sequence in this assay (Q96SW2 whole entry): as the sequence (Q96SW2 whole entry) above
Target sequence in this assay (Q99496 2-336 partner limits assumed): as the sequence (Q99496 2-336 partner limits assumed) above

[6] = tested on: PC-3M; experiment: Inhibition of colony formation in human PC-3M cells at 1 to 10 uM incubated for 14 days by crystal violet staining based assay; format: functional, cell-based; conditions: dose 1-10 µM, time 14.0 day
[7] = target: T1, Protein cereblon/Polycomb complex protein BMI-1; experiment: PROTAC activity at […] in human K562 cells assessed as degradation of BMI1 protein expression at 10 uM incubated for 20 hrs in presence of pomalidomide by Western blotting analysis; format: cell-based
[8] = tested on: PC-3M; experiment: Induction of PRC1 degradation in human PC-3M cells assessed as reduction of H2AK119ub chromatin mark at 1 uM incubated for 24 hrs by Western blotting analysis; format: cell-based
[9] = target: T2, Protein cereblon/E3 ubiquitin-protein ligase RING2; experiment: PROTAC activity at CRBN/RING1B in human K562 cells assessed as degradation of RING1B protein expression incubated for 24 hrs by Western blotting analysis; format: cell-based
[10] = target: T2, Protein cereblon/E3 ubiquitin-protein ligase RING2; experiment: PROTAC activity at CRBN/RING1B in human K562 cells assessed as degradation of RING1B protein expression at 10 uM incubated for 20 hrs in presence of EED226 by Western blotting analysis; format: cell-based
Target sequence in this assay (Q96SW2 whole entry): as the sequence (Q96SW2 whole entry) above
Target sequence in this assay (Q99496 2-336 partner limits assumed): as the sequence (Q99496 2-336 partner limits assumed) above

[11] = tested on: MDA-MB-468; experiment: Antiproliferative activity against human MDA-MB-468 cells assessed as inhibition of cell growth at 1 to 10 uM incubated for 5 days by WST-8 assay; format: functional, cell-based; conditions: dose 1-10 µM, time 5.0 day
[12] = target: Protein cereblon/Polycomb protein EED (Homo sapiens, UniProt O75530+Q96SW2); experiment: PROTAC activity at CRBN/EED in human K562 cells assessed as degradation of EED protein expression incubated for 24 hrs by Western blotting analysis; format: cell-based
Chain of Protein cereblon/Polycomb protein EED (O75530 whole entry): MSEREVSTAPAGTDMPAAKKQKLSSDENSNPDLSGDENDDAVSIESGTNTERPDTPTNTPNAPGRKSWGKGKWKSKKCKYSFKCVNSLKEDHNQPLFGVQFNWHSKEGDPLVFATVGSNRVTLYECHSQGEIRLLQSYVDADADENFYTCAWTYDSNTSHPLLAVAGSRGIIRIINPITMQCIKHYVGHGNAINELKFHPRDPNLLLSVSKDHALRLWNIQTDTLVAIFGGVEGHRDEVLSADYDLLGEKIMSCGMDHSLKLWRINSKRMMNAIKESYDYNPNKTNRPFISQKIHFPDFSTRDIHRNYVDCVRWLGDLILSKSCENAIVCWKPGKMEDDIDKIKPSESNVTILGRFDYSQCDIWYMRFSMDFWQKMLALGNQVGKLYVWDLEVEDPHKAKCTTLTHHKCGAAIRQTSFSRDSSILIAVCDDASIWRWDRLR
Chain of Protein cereblon/Polycomb protein EED (Q96SW2 whole entry): as the sequence (Q96SW2 whole entry) above

[13] = tested on: K562; experiment: Induction of PRC1 degradation in human K562 cells assessed as reduction of H2AK119ub chromatin mark at 0.1 to 10 uM incubated for 24 hrs by Western blotting analysis; format: cell-based; conditions: dose 0.1-10 µM
[14] = target: T1, Protein cereblon/Polycomb complex protein BMI-1; experiment: PROTAC activity at CRBN/BIM1 in human PC-3M cells assessed as degradation of BMI1 protein expression at 1 uM incubated for 24 hrs by Western blotting analysis; format: cell-based
[15] = tested on: 786-0; experiment: Antiproliferative activity against human 786-0 cells assessed as inhibition of cell growth at 30 uM incubated for 7 days by WST-8 assay; format: functional, cell-based; conditions: time 7.0 day
[16] = target: Protein cereblon/Chromobox protein homolog 8 (Homo sapiens) (UniProt Q9HC52+Q96SW2); experiment: PROTAC activity at CRBN/CBX8 in human K562 cells assessed as degradation of CBX8 protein expression at 1 to 10 uM incubated for 24 hrs by Western blotting analysis; format: cell-based; conditions: dose 1-10 µM
[17] = tested on: PNT2; experiment: Cytotoxicity against human PNT2 cells assessed as inhibition of cell growth measured upto 15 uM incubated for 5 days by WST-8 assay; format: toxicity, cell-based; conditions: pnt2, 120 h, time 5 day
[18] = tested on: PC-3M; experiment: Antiproliferative activity against human PC-3M cells assessed as inhibition of cell growth at 1 to 10 uM incubated for 5 days by WST-8 assay; format: functional, cell-based; conditions: dose 1-10 µM, time 5.0 day
[19] = tested on: K562; experiment: Antiproliferative activity against human K562 cells assessed as fold increase in HoxD mRNA expression at 10 uM incubated for 24 hrs by RT-qPCR analysis; format: functional
[20] = target: T2, Protein cereblon/E3 ubiquitin-protein ligase RING2; experiment: PROTAC activity at CRBN/RING1B in human PC-3M cells assessed as degradation of RING1B protein expression at 5 uM incubated for 24 hrs by Western blotting analysis; format: cell-based
Target sequence in this assay (Q96SW2 whole entry): as above
Target sequence in this assay (Q99496 2-336 partner limits assumed): as the sequence (Q99496 2-336 partner limits assumed) above

[21] = target: T2, Protein cereblon/E3 ubiquitin-protein ligase RING2; experiment: PROTAC activity at CRBN/RING1B in human PC-3M cells assessed as degradation of RING1B protein expression at 1 uM incubated for 24 hrs by Western blotting analysis; format: cell-based
Target sequence in this assay (Q96SW2 whole entry): as the sequence (Q96SW2 whole entry) above
Target sequence in this assay (Q99496 2-336 partner limits assumed): as the sequence (Q99496 2-336 partner limits assumed) above

[22] = target: T2, Protein cereblon/E3 ubiquitin-protein ligase RING2; experiment: PROTAC activity at CRBN/RING1B in human K562 cells assessed as degradation of RING1B protein expression at 10 uM incubated for 20 hrs in presence of MLN4924 by Western blotting analysis; format: cell-based
[23] = target: Protein cereblon/Eukaryotic peptide chain release factor GTP-binding subunit ERF3A (Homo sapiens) (UniProt Q96SW2+P15170); experiment: PROTAC activity at CRBN/GSPT1 in human K562 cells assessed as degradation of GSPT1 protein at 0.1 to 10 uM incubated for 4 hrs by Western blotting analysis; format: cell-based; conditions: dose 0.1-10 µM
[24] = target: T1, Protein cereblon/Polycomb complex protein BMI-1; experiment: PROTAC activity at […] in human K562 cells assessed as degradation of BMI1 protein expression at 10 uM incubated for 20 hrs in presence of MG132 by Western blotting analysis; format: cell-based
[25] = target: von Hippel-Lindau disease tumor suppressor/Polycomb complex protein BMI-1 (Homo sapiens) (UniProt P40337+P35226); experiment: PROTAC activity at […] in human 786-0 cells with defective VHL assessed as degradation of BMI1 protein expression at 10 uM incubated for 24 hrs by Western blotting analysis; format: cell-based
Chain of von Hippel-Lindau disease tumor suppressor/Polycomb complex protein BMI-1 (Homo sapiens) (P35226 whole entry, looked up): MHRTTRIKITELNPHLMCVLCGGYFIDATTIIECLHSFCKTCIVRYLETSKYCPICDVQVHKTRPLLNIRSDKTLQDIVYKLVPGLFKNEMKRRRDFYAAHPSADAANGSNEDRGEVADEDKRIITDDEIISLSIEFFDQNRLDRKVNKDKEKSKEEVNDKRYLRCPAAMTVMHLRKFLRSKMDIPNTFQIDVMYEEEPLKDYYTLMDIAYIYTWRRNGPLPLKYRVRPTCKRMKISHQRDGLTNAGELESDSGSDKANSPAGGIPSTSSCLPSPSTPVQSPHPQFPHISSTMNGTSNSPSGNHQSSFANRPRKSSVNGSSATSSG
Chain of von Hippel-Lindau disease tumor suppressor/Polycomb complex protein BMI-1 (Homo sapiens) (P40337 whole entry, looked up): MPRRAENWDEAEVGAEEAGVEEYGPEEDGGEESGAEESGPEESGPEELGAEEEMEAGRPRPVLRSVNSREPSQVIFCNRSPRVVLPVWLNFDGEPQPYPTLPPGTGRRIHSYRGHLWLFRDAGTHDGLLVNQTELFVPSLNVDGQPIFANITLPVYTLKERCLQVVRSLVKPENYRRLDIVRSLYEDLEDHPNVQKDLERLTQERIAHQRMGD

[26] = target: T1, Protein cereblon/Polycomb complex protein BMI-1; experiment: PROTAC activity at […] in human K562 cells assessed as degradation of BMI1 mRNA expression at 10 uM incubated for 20 hrs by RT-qPCR analysis; format: cell-based
[27] = tested on: PC-3M; experiment: Induction of PRC2 degradation in human PC-3M cells assessed as reduction of H3K27me3 chromatin mark at 5 uM incubated for 24 hrs by Western blotting analysis; format: cell-based
[28] = tested on: MDA-MB-468; experiment: Induction of PRC2 degradation in human MDA-MB-468 cells assessed as reduction of H3K27me3 chromatin mark at 5 uM incubated for 24 hrs by Western blotting analysis; format: cell-based
[29] = tested on: K562; experiment: Antiproliferative activity against human K562 cells assessed as fold increase in HoxA mRNA expression at 10 uM incubated for 24 hrs by RT-qPCR analysis; format: functional
[30] = target: Protein cereblon/Histone-lysine N-methyltransferase EZH2 (Homo sapiens) (UniProt Q15910+Q96SW2); experiment: PROTAC activity at CRBN/EZH2 in human K562 cells assessed as degradation of EZH2 protein expression at 0.1 to 10 uM incubated for 24 hrs by Western blotting analysis; format: cell-based; conditions: dose 0.1-10 µM
Chain of Protein cereblon/Histone-lysine N-methyltransferase EZH2 (Homo sapiens) (Q15910 whole entry, looked up): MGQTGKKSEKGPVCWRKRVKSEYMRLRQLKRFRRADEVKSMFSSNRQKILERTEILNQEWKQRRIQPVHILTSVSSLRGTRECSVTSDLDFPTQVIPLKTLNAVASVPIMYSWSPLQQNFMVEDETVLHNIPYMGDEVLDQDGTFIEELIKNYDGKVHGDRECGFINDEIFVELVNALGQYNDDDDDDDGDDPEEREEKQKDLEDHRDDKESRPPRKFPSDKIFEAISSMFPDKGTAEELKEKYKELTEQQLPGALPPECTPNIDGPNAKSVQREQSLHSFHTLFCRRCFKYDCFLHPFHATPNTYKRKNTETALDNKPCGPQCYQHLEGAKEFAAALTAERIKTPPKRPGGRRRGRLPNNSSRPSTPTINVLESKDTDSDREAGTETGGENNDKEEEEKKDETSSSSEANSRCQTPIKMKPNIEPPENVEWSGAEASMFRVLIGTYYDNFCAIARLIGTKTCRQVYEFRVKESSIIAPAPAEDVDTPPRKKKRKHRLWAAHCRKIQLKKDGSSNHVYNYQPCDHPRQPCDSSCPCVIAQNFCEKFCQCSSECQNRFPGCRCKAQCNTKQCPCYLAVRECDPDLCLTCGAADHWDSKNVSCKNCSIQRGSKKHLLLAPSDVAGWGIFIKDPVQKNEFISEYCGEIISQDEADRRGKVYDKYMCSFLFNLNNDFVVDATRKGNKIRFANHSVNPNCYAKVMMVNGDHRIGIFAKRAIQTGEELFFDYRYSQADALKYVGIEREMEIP
Chain of Protein cereblon/Histone-lysine N-methyltransferase EZH2 (Homo sapiens) (Q96SW2 whole entry, looked up): as the sequence (Q96SW2 whole entry) above

T1 sequence (P35226 whole entry, looked up): as the sequence (P35226 whole entry, looked up) above
T1 sequence (Q96SW2 whole entry, looked up): as the sequence (Q96SW2 whole entry) above

Activity [1]: inactive
Activity [2]: Active
Activity [3]: 100%
Activity [5]: Active
Activity [7]: inactive
DC50 [9]: 1300 nM
Activity [10]: inactive
DC50 [12]: 3.3 µM
Activity [14]: Active
Activity [16]: inactive
Activity [20]: Active
Activity [21]: Active
Activity [22]: inactive
Activity [23]: inactive
Activity [24]: inactive
Activity [25]: Active
Activity [26]: inactive
Activity [30]: Active
Structure (SMILES): O=C(CNc1cccc2c1C(=O)N(C1CCC(=O)NC1=O)C2=O)NCCCCN1CCN(c2ccc(-c3cnc(NCc4ccco4)n4cnnc34)cc2)CC1 (stereo not given)
Activity [4]: Active
inhibition [6]: Active
Activity [8]: Active
Activity [11]: Active
Activity [13]: Active
Activity [15]: Active
Activity [17]: Non-Toxic
Activity [18]: Active
fold change (FC) [19]: 2.3
Activity [27]: inactive
Activity [28]: inactive
fold change (FC) [29]: 3.1

— ChEMBL document CHEMBL5543147, “Discovery and Characterization of a Novel Cereblon-Recruiting PRC1 Bridged PROTAC Degrader” (J Med Chem, 2024)
